In PMC9963409, “Structural Insight into Catalysis by the Flavin-Dependent NADH Oxidase (Pden_5119) of Paracoccus denitrificans” (International Journal of Molecular Sciences, 2023):
Each block holds one molecule with its values, some of them ahead of it.

Experiments:
Pden_5119 [1] = molecular target: T1, Pden_5119 (Paracoccus denitrificans, UniProt A1BCD5, R116A); assay: intrinsic protein fluorescence quenching titration; format: binding; conditions: read-out: Kd^FMN
T1 construct: C-terminal His6 tag kept, expressed in E. coli BL21(DE3)pLysS; subunit 20596 g/mol; dimer in solution; contains no cysteine
T1 sequence (A1BCD5 entry or part of it R116A): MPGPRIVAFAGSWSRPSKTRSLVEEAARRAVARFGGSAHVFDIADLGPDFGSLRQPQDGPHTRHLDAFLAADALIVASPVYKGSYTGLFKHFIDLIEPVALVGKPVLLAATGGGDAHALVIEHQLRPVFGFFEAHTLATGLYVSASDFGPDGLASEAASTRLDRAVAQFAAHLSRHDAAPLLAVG
Description: (§1) intrinsic protein fluorescence quenching titration on Pden_5119

Pden_5119 [2] = molecular target: T2, Pden_5119 (Paracoccus denitrificans, UniProt A1BCD5); assay: intrinsic protein fluorescence quenching titration; format: binding; conditions: read-out: Kd^FMN
T2 construct: C-terminal His6 tag kept, expressed in E. coli BL21(DE3)pLysS; subunit 20596 g/mol; dimer in solution; contains no cysteine
Description: as §1

Pden_5119 [3] = molecular target: T3, Pden_5119 (Paracoccus denitrificans, UniProt A1BCD5, H117A); assay: intrinsic protein fluorescence quenching titration; format: binding; conditions: read-out: Kd^FMN
T3 construct: C-terminal His6 tag kept, expressed in E. coli BL21(DE3)pLysS; subunit 20596 g/mol; dimer in solution; contains no cysteine
T3 sequence (A1BCD5 entry or part of it H117A): as the sequence (A1BCD5 entry or part of it R116A) above, with A116R, H117A counted along it
Description: as §1

Pden_5119 [4] = molecular target: T4, Pden_5119 (Paracoccus denitrificans, UniProt A1BCD5, R116K); assay: intrinsic protein fluorescence quenching titration; format: binding; conditions: read-out: Kd^FMN
T4 construct: C-terminal His6 tag kept, expressed in E. coli BL21(DE3)pLysS; subunit 20596 g/mol; dimer in solution; contains no cysteine
T4 sequence (A1BCD5 entry or part of it R116K): as the sequence (A1BCD5 entry or part of it R116A) above, with A116K counted along it
Description: as §1

Pden_5119 [5] = molecular target: T5, Pden_5119 (Paracoccus denitrificans, UniProt A1BCD5, K82A); assay: intrinsic protein fluorescence quenching titration; format: binding; conditions: read-out: Kd^FMN
T5 construct: C-terminal His6 tag kept, expressed in E. coli BL21(DE3)pLysS; subunit 20596 g/mol; dimer in solution; contains no cysteine
T5 sequence (A1BCD5 entry or part of it K82A): as the sequence (A1BCD5 entry or part of it R116A) above, with K82A, A116R counted along it
Description: as §1

Pden_5119 [6] = molecular target: T5, Pden_5119; assay: stopped-flow reduction of enzyme-bound FMN at […] nm, hyperbolic fit of kobs; format: biochemical; conditions: anaerobic reductive half-reaction of enzyme-FMN complex; rapid-equilibrium binding step; 0.1 M sodium phosphate pH 7.3; 10 °C; read-out: KNADH
Pden_5119 [7] = molecular target: T2, Pden_5119; assay: as above; format: biochemical; conditions: anaerobic reductive half-reaction of enzyme-FMN complex; rapid-equilibrium binding step; 0.1 M sodium phosphate pH 7.3; 10 °C; read-out: KNADH
Pden_5119 [8] = molecular target: T4, Pden_5119; assay: as above; format: biochemical; conditions: anaerobic reductive half-reaction of enzyme-FMN complex; rapid-equilibrium binding step; 0.1 M sodium phosphate pH 7.3; 10 °C; read-out: KNADH
Pden_5119 [9] = molecular target: T1, Pden_5119; assay: as above; format: biochemical; conditions: anaerobic reductive half-reaction of enzyme-FMN complex; rapid-equilibrium binding step; 0.1 M sodium phosphate pH 7.3; 10 °C; read-out: KNADH
Pden_5119 [10] = molecular target: T3, Pden_5119; assay: as above; format: biochemical; conditions: anaerobic reductive half-reaction of enzyme-FMN complex; rapid-equilibrium binding step; 0.1 M sodium phosphate pH 7.3; 10 °C; read-out: KNADH
[11] = molecular target: the molecule itself; assay: SAXS; protein at 1.5 mg/mL (73 μM in monomer); ab initio envelope (DAMMIN) and CRYSOL fit of a dimeric homology model to the scattering curve

Kd (Pden_5119 [1]): 3.5 ± 1.5 µM | Kd (Pden_5119 [2]): 3.8 ± 0.4 µM | Kd (Pden_5119 [3]): 9.1 ± 0.6 µM | Kd (Pden_5119 [4]): 0.6 ± 0.1 µM | Kd (Pden_5119 [5]): 6.8 ± 3.4 µM
Molecule: Cc1cc2nc3c(=O)[nH]c(=O)nc-3n(C[C@H](O)[C@H](O)[C@H](O)COP(=O)(O)O)c2cc1C [FMN]

Kd (Pden_5119 [6]): 53 ± 18 µM | Kd (Pden_5119 [7]): 19 ± 1 µM | Kd (Pden_5119 [8]): 20 ± 4 µM | Kd (Pden_5119 [9]): 39 ± 17 µM | Kd (Pden_5119 [10]): 40 ± 7 µM
Molecule: NC(=O)C1=CN([C@@H]2O[C@H](COP(=O)(O)OP(=O)(O)OC[C@H]3O[C@@H](n4cnc5c(N)ncnc54)[C@H](O)[C@@H]3O)[C@@H](O)[C@H]2O)C=CC1 [NADH]

B1: Pden_5119 protein (flavin-dependent NADH oxidase of Paracoccus denitrificans) (enzyme)
chain: MPGPRIVAFAGSWSRPSKTRSLVEEAARRAVARFGGSAHVFDIADLGPDFGSLRQPQDGPHTRHLDAFLAADALIVASPVYKGSYTGLFKHFIDLIEPVALVGKPVLLAATGGGDRHALVIEHQLRPVFGFFEAHTLATGLYVSASDFGPDGLASEAASTRLDRAVAQFAAHLSRHDAAPLLAVG
notes: Pden_5119, product of the gene pden_5119 of Paracoccus denitrificans; subunit molar mass 20 596 g/mol; 15 histidines per monomer including the tag; also called wild-type; not shown: His6, C-terminal, kept
stoichiometry N [11]: 2
